One assay concerns phospho-akt (Thr308). Put plainly: phospho-akt (Thr308) MSD ELISA in PC-3 cells. The assay is classed as cell-based. As to conditions: Homo sapiens, PC-3 cells; for pEC50 / EC50: PC-3, 2 h, 2 hours, no serum; for pEC50: read-out: Inhibition of P308 Akt in cells using MSD EC50; for inhibition at 1 µM / inhibition at 10 µM: read-out: Percent Inhibition of phospho-Akt (308) By MSD ELISA; for EC50: read-out: Reduction of Cellular Levels of Akt p308 By MSD ELISA (EC50 μM). The method, boiled down:
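Read-out is MSD electrochemiluminescence after lysate capture overnight at 4 degrees and 1 hr RT detection-antibody step. Before lysis, overnight-plated PC-3 cells received three-fold serial dilutions of inhibitor in serum-free medium, with DMSO-only high controls.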

The next assay concerns the target phosphorylated PDK1 (Homo sapiens (Human), UniProt O15530). Put plainly: PDK1 kinase assay (coupled PDK1/AKT/FAM-crosstide, IMAP). In kind it is biochemical. Conditions: 0.5 nM phosphorylated PDK1, 24 μM ATP; read-out: Inhibition of phospo-PDK1 in vitro IC50.
A further assay deals with Phospho-T308 Akt. Description: Phospho-T308 Akt detection using immunoblot (western blot) in PC-3 cells. Conditions: for Reduction of Cellular Levels of Akt p308 By Western: 2 hour incubation, concentration not given in Table 2; for inhibition at 5 µM: Homo sapiens, read-out: Percent Inhibition of phospho-Akt (308) By Western. The assay is classed as cell-based. The procedure:
A Phospho-T308 Akt detection using immunoblot (western blot) analysis was performed as described below.
PC-3 prostate cells were plated in a 6 well plate in F12K media (Invitrogen, Carlsbad, Calif.) plus 10% FBS (Invitrogen) and placed in incubator overnight. The stock of compound A was a 50 mM solution in DMSO. 1000× dilutions of the compound were made in DMSO. The 1000× dilutions include, 35 mM, 25 mM, 15 mM, 10 mM, 7 mM, 5 mM, and 1 mM. 1 μl of the 1000× dilutions was added to 1 ml F12K media without serum for final concentrations of […]. 1 μl of DMSO was added to 1 ml media with no serum for a control. The 1 ml DMSO or compound plus media was then added to the cells. Following a 2 hour incubation at 37° C., cells were harvested and washed in PBS and subjected to centrifugation at 3,300 rpm for 5 minutes. Cells were lysed in 100 μl of Bio Rad Bioplex buffer containing protease inhibitors (BioRad, Hercules, Calif.) for 30 minutes on ice followed by centrifugation at 13,000 rpm for 5 minutes. The protein content of the supernatant was assayed using DC Protein Assay (BioRad). 25 μl of protein was added to 4× sample buffer (Invitrogen) and sample reducer (Invitrogen) and run on a 4-12% NuPage gel (Invitrogen). Proteins were then transferred to nitrocellulose (Invitrogen). The membrane was blocked in Tris-buffered saline (Sigma, St. Louis, Mo.) plus 0.1% Tween (Sigma) (T-TBS) plus 5% blotting grade milk (BioRad) for 60 minutes. Membranes were then incubated in T-TBS plus 5% BSA (Sigma) plus 1:1000 of anti-phospho akt (Thr 308) (Cell Signaling Technology, Beverly, Mass.) overnight at 4° C. Membranes were washed in T-TBS then incubated in 1:2000 of anti-rabbit-HRP (Cell Signaling) in TTBS plus 5% milk. Membranes were washed again and proteins were visualized with Super Signal West Pico (Pierce, Rockford, Ill.) and using Kodak BioMax MR film (Kodak, Rochester, N.Y.).
Phospho-akt 308 protein bands on the film were quantified using densitometry. An Alpha Imager (Alpha Innotech Corp, San Leandro, Calif.) using AlphaEase FC software version 4.1.0 (Alpha Innotech Corp.) was used to quantitate protein bands. Briefly, a rectangle of equal size was placed around each protein band as well as a background spot on the film. The densitometry values (IDV=Integrated Density Value) obtained for the background spot was then subtracted from the values obtained for the protein bands. These values were used to obtain an EC50 value using non-linear regression analysis in GraphPad Prism Version 4.00 (Graph Pad Prism, San Diego, Calif.). Percent decrease in expression of phosphoh-akt 308 were also measured specifically at 2 μM and 5 μM levels of inhibitor.
Background: A western blot detects proteins with antibodies after separation by electrophoresis.

In the next assay the target is dephosphorylated PDK1 (Homo sapiens (Human), UniProt O15530). Put plainly: PDK1 kinase assay (coupled PDK1/AKT/FAM-crosstide, IMAP). The assay is classed as biochemical. Conditions: 25 nM un-phosphorylated PDK1, 24 μM ATP; read-out: Inhibition of dephospo-PDK1 in vitro IC50. The method, boiled down:
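The FAM-crosstide phosphorylation readout was IMAP polarization (ex 485/em 530 nm, 2 h binding), with 4-parameter fits of ΔmP data. The reaction ran 30 min at 25 °C with 24 μM ATP, and contained 25 nM phosphatase-treated PDK1 (aa 51–360) plus 30 nM unphosphorylated AKT2-PIFtide and 100 nM substrate. Buffer was 10 mM Tris pH 7.2, 10 mM MgCl2, 0.01% Triton X-100 and 1 mM DTT.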

For orientation: pEC50 means the EC50 on a negative log10 scale, so that one unit is a factor of ten. In general, inhibition refers to the percentage by which the read-out fell short of the control. As a reminder, the pIC50 is the IC50 on a negative log10 scale, so that one unit is a factor of ten. The term EC50 denotes the midpoint of the concentration-response curve.

The structures appear in SMILES notation. pEC50, pIC50: −log10 of the molar value. Read-outs that look alike come from different tables or passages of the source.

Sequence of phosphorylated PDK1 (O15530 51-360): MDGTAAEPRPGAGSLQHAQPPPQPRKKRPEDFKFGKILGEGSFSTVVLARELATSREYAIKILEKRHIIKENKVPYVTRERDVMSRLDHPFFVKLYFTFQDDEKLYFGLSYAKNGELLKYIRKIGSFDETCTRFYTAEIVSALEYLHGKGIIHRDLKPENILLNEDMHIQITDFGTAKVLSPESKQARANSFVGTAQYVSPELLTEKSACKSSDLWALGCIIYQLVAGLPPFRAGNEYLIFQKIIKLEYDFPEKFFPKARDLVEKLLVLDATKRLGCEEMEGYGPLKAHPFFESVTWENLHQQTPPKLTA
Sequence of dephosphorylated PDK1 (O15530 51-360): as above

`COC(=O)C[C@H](NC(=O)c1cccn(Cc2ccc(F)c(F)c2)c1=O)c1nnc(-c2c[nH]c3ncccc23)o1` [Cpd 291]: in the assay with phospho-akt (Thr308), the negative logarithm of the EC50 (pEC50) is over 6.00, the inhibition at 1 µM fell in the range of 25 to 75% and the inhibition at 10 µM was over 75%. In addition, on phosphorylated PDK1, the pIC50 is over 6.30. In the assay on Phospho-T308 Akt, the “Reduction of Cellular Levels of Akt p308 By Western” value (shortened to “Reduction”) is “bbb (inhibition of more than 75%)” and the inhibition at 5 µM was over 75%.

For the compound `O=C(NCc1noc(-c2c[nH]c3ncccc23)n1)c1cccn(Cc2ccc(C(F)(F)F)cc2)c1=O` [Cpd 143], the negative logarithm of the IC50 (pIC50) on dephosphorylated PDK1 and at phosphorylated PDK1 was over 6.30 throughout. In addition, the pEC50 in the assay on phospho-akt (Thr308) is under 5.30. Also, the EC50 in the assay with phospho-akt (Thr308) is over 5 µM.

`O=C(NCc1noc(-c2c[nH]c3ncccc23)n1)c1cccn(Cc2ccc(C(F)(F)F)c(F)c2)c1=O` [Cpd 141]: the pIC50 at dephosphorylated PDK1 and on phosphorylated PDK1 was over 6.30 each time. Moreover, the pEC50 in the assay with phospho-akt (Thr308) was 5.30 to 6.00. For the same compound, the concentration for a half-maximal effect (EC50) in the assay with phospho-akt (Thr308) lay in the range of 1 to 5 µM.

Turning to `O=C(NCc1ncc(-c2c[nH]c3ncccc23)s1)c1cccn(Cc2ccc(F)c(F)c2)c1=O` [Cpd 132], in the assay on phospho-akt (Thr308), the pEC50 was over 6.00, the inhibition at 1 µM lay within 25 to 75% and the inhibition at 10 µM was over 75%. For the same compound, on phosphorylated PDK1, the negative-log IC50 (pIC50) was over 6.30. Also, in the assay with Phospho-T308 Akt, the “Reduction” value is “bbb (inhibition of more than 75%)” and the inhibition at 5 µM was over 75%.

On to `O=C(Nc1cccc(Cc2c[nH]c3ncccc23)c1)c1cccn(Cc2ccc(F)c(F)c2)c1=O` [Cpd 128], for which the negative logarithm of the IC50 (pIC50) at dephosphorylated PDK1 is over 6.30; on phosphorylated PDK1, 5.00 to 6.30. The pEC50 in the assay on phospho-akt (Thr308) is under 5.30.

Regarding `C[C@@H](c1ccc(F)cc1)n1cccc(C(=O)NCc2noc(-c3c[nH]c4ncccc34)n2)c1=O` [Cpd 311], the negative logarithm of the IC50 (pIC50) on dephosphorylated PDK1 is over 6.30. Moreover, in the assay on phospho-akt (Thr308), the inhibition at 1 µM was under 25% and the inhibition at 10 µM was over 75%. In addition, the pIC50 on phosphorylated PDK1 was over 6.30.

As to `Cc1ccc(NC(=O)c2cccn(Cc3ccc(F)c(F)c3)c2=O)cc1-c1ccc2[nH]c(=O)[nH]c2c1` [Cpd 167], the negative logarithm of the IC50 (pIC50) on dephosphorylated PDK1 and on phosphorylated PDK1 was 5.00 to 6.30 in each case. Further, in the assay with phospho-akt (Thr308), the pEC50 is under 5.30.

As for `O=C(N[C@H](CCCO)c1nc(-c2c[nH]c3ncccc23)c[nH]1)c1cccn(Cc2ccc(F)c(F)c2)c1=O` [Cpd 313], on dephosphorylated PDK1, the negative logarithm of the IC50 (pIC50) was over 6.30. Besides, in the assay on phospho-akt (Thr308), the inhibition at 1 µM was in the range of 25 to 75% and the inhibition at 10 µM fell in the range of 25 to 75%. Besides, the pIC50 at phosphorylated PDK1 was over 6.30.

As to `O=C(NCc1ccc(-c2c[nH]c3ncc(F)cc23)s1)c1cccn(Cc2ccc(F)c(F)c2)c1=O` [Cpd 11], in the assay on phospho-akt (Thr308), the negative-log EC50 (pEC50) is over 6.00 and the EC50 is under 1 µM. For the same compound, the pIC50 at phosphorylated PDK1 was over 6.30. Moreover, in the assay with Phospho-T308 Akt, the “Reduction” value is reported as “bbb (inhibition of more than 75%)” and the inhibition at 5 µM is over 75%.

With `Nc1cc(C(=O)NCc2noc(-c3c[nH]c4ncccc34)n2)c(=O)n(Cc2cc(F)c(F)c(F)c2)c1` [Cpd 187], the negative logarithm of the IC50 (pIC50) at dephosphorylated PDK1 and on phosphorylated PDK1 was over 6.30 each time. For the same compound, the pEC50 in the assay with phospho-akt (Thr308) was under 5.30.

`O=C(N[C@@H](COc1ccc2[nH]c(=O)[nH]c2c1)Cc1ccccc1)c1cccn(Cc2ccc(F)c(F)c2)c1=O` [Cpd 321]: the pIC50 on dephosphorylated PDK1 is over 6.30. In the assay with phospho-akt (Thr308), the pEC50 was under 5.30, the inhibition at 1 µM was under 25% and the inhibition at 10 µM is over 75%. The pIC50 at phosphorylated PDK1 was over 6.30.

Source of the values: US9873693B2 (Sunesis Pharmaceuticals, Inc., priority 2006, dated 2018).
